According to patent publication US20120225097A1, “PIPERAZINECARBOXAMIDE DERIVATIVE USEFUL AS A MODULATOR OF FATTY ACID AMIDE HYDROLASE (FAAH)” (priority 2009, published 2012):
Several values for one entry are separate records, joined by “and”; a condition that tells them apart may be missing. Identical values can stand only once. Counter-ions that a name gives are not always drawn.

What was measured:
[1] = test system: Langendorff isolated heart; test: Assay Method 3: Langendorff isolated heart protocol; design: species or system Sprague-Dawley rats; details: isolated rat heart; for effect on left ventricular developed pressure (LVDevP): 30 μM; for effect on left ventricular systolic pressure (LVSP): maximum concentration tested 30 μM; for hearts showing greater than 30% slowing of heart rate: perfused at 30 μM; for hearts showing greater than 30% heart rate slowing: bath concentration 26 μM
Procedure: Langendorff Isolated Heart Protocol
Male Sprague-Dawley rats (300-500 g) were anesthetized by an intraperitoneal injection of sodium pentobarbital (50 mg/kg), and then euthanized via cardiectomy. Hearts were rapidly removed, mounted on a
A ventricular drain and fluid-filled latex balloon was secured in the left ventricle with a purse string suture at the atrial appendage. Hearts were not paced. […] The hearts were maintained at approximately 37° C. while suspended in a glass chamber and bathed with Krebs-Henseleit buffer. The latex balloon in the left ventricle (LV) was expanded with water to achieve a LV end-diastolic pressure (LVEDP) of approximately 10-15 mmHg. The balloon was connected via tubing to a pressure transducer to measure LVEDP, LV […] pressure (LVDP) and LV systolic pressure (LVSP). Coronary perfusion pressure (CPP) was measured with a pressure transducer connected to a side-arm port of the aortic cannula.
Individual hearts were equilibrated for approximately 10-15 minutes. Following this equilibration period, baseline measurements were collected for approximately 15 minutes. After this period, a first heart was exposed to test compound for a total 75 min (comprising five increasing concentrations of test compound for approximately 15 minutes at each concentration) with measurements collected continuously. Test compound was dissolved in DMSO and then added directly to the experiment perfusion medium.
A one mL sample of perfusion medium was taken from the heart exudate at the end of each 15 minute monitoring period. The samples were frozen on dry ice, stored in a freezer set to maintain −80° C. until analysis. At the conclusion of the experiment, the hearts were frozen with liquid nitrogen and stored in a freezer set to maintain a temperature of −80° C. until analyzed.

[2] = biological target: T1, rat FAAH (Rattus norvegicus, UniProt P97612); test: Assay Method 2: FAAH assay, anandamide hydrolysis in cell homogenate; format: biochemical; details: for IC50: average value (standard error of the mean in parenthesis), 3H-AEA 80 nM, 1 h rt
T1 construct: expressed in transfected cells
T1 sequence (P97612 1-579): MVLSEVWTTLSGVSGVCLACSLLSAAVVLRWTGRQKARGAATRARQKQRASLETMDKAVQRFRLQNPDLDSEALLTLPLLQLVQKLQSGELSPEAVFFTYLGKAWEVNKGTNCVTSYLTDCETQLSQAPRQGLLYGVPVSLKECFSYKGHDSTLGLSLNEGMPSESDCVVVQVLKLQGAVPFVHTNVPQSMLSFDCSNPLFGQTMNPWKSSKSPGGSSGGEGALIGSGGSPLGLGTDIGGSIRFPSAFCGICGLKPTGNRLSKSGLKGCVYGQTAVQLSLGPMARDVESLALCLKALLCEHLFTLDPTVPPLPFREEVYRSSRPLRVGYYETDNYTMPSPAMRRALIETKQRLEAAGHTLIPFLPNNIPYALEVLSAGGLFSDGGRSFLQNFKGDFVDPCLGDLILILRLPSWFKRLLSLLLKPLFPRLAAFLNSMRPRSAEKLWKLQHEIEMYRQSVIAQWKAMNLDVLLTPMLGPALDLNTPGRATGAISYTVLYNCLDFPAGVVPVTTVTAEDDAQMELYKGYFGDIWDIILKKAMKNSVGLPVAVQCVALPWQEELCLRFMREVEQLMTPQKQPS
Procedure: A. Transfection of Cells with Rat FAAH
A 10-cm tissue culture dish with a confluent monolayer of SK-N-MC cells was split 2 d prior to transfection. Using sterile technique, the media was removed and the cells were detached from the dish by the addition of trypsin. One fifth of the cells were then placed onto a new 10-cm dish. Cells were grown in a 37° C. incubator with 5% CO2 in Minimal Essential Media Eagle containing 10% Fetal Bovine Serum. After 2 d, cells were approximately 80% confluent. These cells were removed from the dish with trypsin and pelleted in a clinical centrifuge. The pellet was re-suspended in 400 μL complete media and transferred to an electroporation cuvette with a 0.4 cm gap between the electrodes. Supercoiled rat FAAH cDNA (1 μg), corresponding to NCBI accession NM_024132, was added to the cells and mixed. The voltage for the electroporation was set at 0.25 kV, and the capacitance was set at 960 μF. After electroporation, the cells were diluted into complete media (10 mL) and plated onto four 10-cm dishes. Because of the variability in the efficiency of electroporation, four different concentrations of cells were plated. The ratios used were 1:20, 1:10, and 1:5, with the remainder of the cells being added to the fourth dish. The cells were allowed to recover for 24 h before adding the selection media (complete media with 600 μg/mL G418). After 10 d, dishes were analyzed for surviving colonies of cells. Dishes with well-isolated colonies were used. Cells from individual colonies were isolated and tested.
T84 frozen cell pellets or transfected SK-N-MC cells (contents of 1×15 cm culture dishes) were homogenized in 50 mL of FAAH assay buffer (125 mM Tris, 1 mM EDTA, 0.2% Glycerol, 0.02% Triton X-100, 0.4 mM Hepes, pH 9). The assay mixture consisted of 50 μL of the cell homogenate, 10 μL of the test compound, and 40 μL of anandamide [1-^3H-ethanolamine] (^3H-AEA, Perkin-Elmer, 10.3 Ci/mmol), which was added last, for a final tracer concentration of 80 nM. The reaction mixture was incubated at rt for 1 h. During the incubation, 96-well Multiscreen filter plates (catalog #MAFCNOB50; Millipore, Bedford, Mass., USA) were loaded with 25 μL of activated charcoal (Multiscreen column loader, catalog #MACL09625, Millipore) and washed once with 100 μL of MeOH. Also during the incubation, 96-well DYNEX MicroLite plates (catalog #NL510410) were loaded with 100 μL of MicroScint40 (catalog #6013641, Packard Bioscience, Meriden, Conn., USA). After the 1 h incubation, 60 μL of the reaction mixture were transferred to the charcoal plates, which were then assembled on top of the DYNEX plates using Centrifuge Alignment Frames (catalog #MACF09604, Millipore). […]

SMILES	effect on left ventricular developed pressure (LVDevP) [1]	effect on left ventricular systolic pressure (LVSP) [1]	hearts showing greater than 30% slowing of heart rate [1]	IC50 [2]	effect on left ventricular systolic pressure (LVSP) ([1]; listed as N-pyridin-3-yl-4-{3-[4-(trifluoromethyl)phenoxy]benzyl}piperazine-1-carboxamide , bis-hydrochloride dihydrate)	effect on left ventricular systolic pressure (LVSP) ([1]; listed as N-pyridin-3-yl-4-{3-[4-(trifluoromethyl)phenoxy]benzyl}piperazine-1-carboxamide, bis-hydrochloride dihydrate)	times more potent in in vitro assays using rat FAAH enzyme (vs 4-chlorophenyl comparator) ([2]; relative to 4-({3-[(4-chlorophenyl)oxy]phenyl}methyl)-N-pyridin-3-ylpiperazine-1-carboxamide)	hearts showing greater than 30% heart rate slowing [1]	hearts showing greater than 30% heart rate slowing ([1]; listed as 4-[3-(4-bromophenoxy)benzyl]-N-pyridin-3-ylpiperazine-1-carboxamide bis-hydrochl)
O=C(Nc1cccnc1)N1CCN(Cc2cccc(Oc3ccc(Cl)cc3)c2)CC1 [4-({3-[(4-Chlorophenyl)oxy]phenyl}methyl)-N-pyridin-3-ylpiperazine-1-carboxamide]	near-doubling	marked increase	all hearts (n=4) and 4/4	65 nM					
O=C(Nc1cccnc1)N1CCN(Cc2cccc(Oc3ccc(C(F)(F)F)cc3)c2)CC1 [Example 1, N-Pyridin-3-yl-4-{3-[4-(trifluoromethyl)phenoxy]benzyl}piperazine-1-carboxamide, bis-hydrochloride dihydrate]	decrease		two of five	18 nM	did not induce an abrupt increase	did not	about 3.5 times		
O=C(Nc1cccnc1)N1CCN(Cc2cccc(Oc3ccc(Br)cc3)c2)CC1 [4-[3-(4-Bromophenoxy)benzyl]-N-pyridin-3-ylpiperazine-1-carboxamide]				22 nM				3/4	three of four
